According to patent publication US12195804B2, “Treatment of squamous cell carcinoma” (Board of Regents, The University of Texas System, priority 2018, dated 2025):

Key:
HNSCC cell lines [1] = test: Apoptosis assays (Annexin V/propidium iodide, BrdU TUNEL, cleaved PARP/caspase 3); assay type: cell-based, human; details: 50 nM
Procedure: (§1) FIGS. 7A-7D: PI3K/mTOR signaling inhibition induces cell death in NOTCH1^MUT but not NOTCH1^WT head and neck squamous cell carcinoma (HNSCC) cell lines in vitro. FIG. 7A. Annexin V/propidium iodide or BrDU-terminal deoxynucleotidyl transferase (TdT) dUTP nick-end labeling (TUNEL) assays were used to measure apoptosis in HNSCC cells with the indicated NOTCH1 and PIK3CA mutations, which were treated with 50 nM GSK2126458 (GSK212) for 24 or 48 hours, respectively. Values are the means±standard deviations of three independent experiments. *p<0.05, unpaired two-tailed Student t-test. FIG. 7B. Western blotting of cleaved PARP (Cl-PARP) and cleaved caspase 3 (Cl-Caspase 3) levels in mutant and wild type cells after GSK212 treatment for 48 hours. FIG. 7C. NOTCH1^MUT and NOTCH1^WT HNSCC cells were plated sparsely and treated with GSK212 at the indicated concentrations for 48 hours. At 14-21 days after treatment, the cells were fixed and stained, images were captured using the GelCount Tumour Colony Counter, and colony numbers and the colorimetric intensity of the colonies were determined by measuring the optical density (OD) at 570 nm. Values are the means±standard deviations of three independent experiments. *p<0.001, unpaired two-tailed Student t-test. FIG. 7D. Three NOTCH1^WT lines (black text and bars) and three NOTCH1^MUT lines (red text and bars) were treated with increasing concentrations of GSK212 for 4 hours, and levels of PI3K/mTOR pathway proteins were measured by Western blot analysis.
Western blot analysis. Western blot analysis was performed as described previously (Ferrarotto et al., 2016). In brief, cells were lysed with ice-cold lysis buffer, and the lysates were centrifuged at 20,000×g for 10 minutes at 4° C. Cell samples containing equal amounts of protein were resolved using sodium dodecyl sulfate-polyacrylamide gel electrophoresis, transferred to nitrocellulose membranes, and immunoblotted with different primary antibodies. Protein expression was detected using a horseradish peroxidase-conjugated secondary antibody (Bio-Rad, Hercules, CA) and electrochemiluminescence reagent (Amersham Biosciences, Pittsburg, PA).
Apoptosis and cell cycle assays. To measure apoptosis, we performed terminal deoxynucleotidyl transferase dUTP nick end labeling (TUNEL) staining with an APO-BRDU Kit (BD Biosciences, San Jose, CA) and Annexin V/propidium iodide staining with an FITC Annexin V Apoptosis Detection Kit (BD Pharmingen, San Diego, CA) as described previously (Chandarlapaty et al., 2011). […] Data were acquired with a three-laser, 10-color Gallios flow cytometer (Beckman Coulter, Brea, CA) and analyzed using Kaluza software (Beckman Coulter, Brea, CA). […]

HNSCC cell lines [2] = test: Colony formation assay; assay type: cell-based, human; details: 48 hours treatment, 14-21 days, NOTCH1MUT compared with NOTCH1WT lines, below peak plasma concentration
Procedure: as §1, with “Western blotting of cleaved PARP (Cl-PARP) and cleaved caspase 3 (Cl-Caspase 3) levels in mutant and wild type cells after GSK212 treatment for 48 hours. FIG. 7C. NOTCH1^MUT and NOTCH1^WT HNSCC cells were plated sparsely and treated with GSK212 at the indicated concentrations for 48 hours.” left out, “Values are the means±standard deviations of three independent experiments. *p<0.001, unpaired two-tailed Student t-test. FIG. 7D.” left out
Colony formation assays. […] The total colony number and area were counted and analyzed using the ImageJ software program (National Institutes of Health, Bethesda, MD). […]

[3] = tested on: PI3K/mTOR pathway proteins; test: Western blot of PI3K/mTOR pathway proteins; assay type: cell-based, human; details: 4 hours, NOTCH1WT and NOTCH1MUT lines
Procedure: as §1, with “Western blotting of cleaved PARP (Cl-PARP) and cleaved caspase 3 (Cl-Caspase 3) levels in mutant and wild type cells after GSK212 treatment for 48 hours. FIG. 7C. NOTCH1^MUT and NOTCH1^WT HNSCC cells were plated sparsely and treated with GSK212 at the indicated concentrations for 48 hours.” left out, “Values are the means±standard deviations of three independent experiments. *p<0.001, unpaired two-tailed Student t-test. FIG. 7D.” left out
Western blot analysis. […] Protein expression was detected using a horseradish peroxidase-conjugated secondary antibody (Bio-Rad, Hercules, CA) and electrochemiluminescence reagent (Amersham Biosciences, Pittsburg, PA).

[4] = tested on: HN31 and UMSCC22A subcutaneous xenografts; test: Subcutaneous xenograft models of NOTCH1MUT HNSCC; assay type: in vivo, athymic nude mice; details: 1 mg/kg oral gavage daily 28 days
Procedure: FIGS. 8A-8D: PI3K/mTOR pathway inhibitors cause apoptosis and reduce tumor size in NOTCH1^MUT head and neck squamous cell carcinoma (HNSCC) in vivo. FIGS. 8A and 8B. The NOTCH1^MUT cell lines HN31 (FIG. 8A) and UMSCC22A (UM22A; FIG. 8B) were injected subcutaneously (SQ) into athymic nude mice. After tumors reached 150 mm^3, the mice were randomized to receive either vehicle control (2-hydroxypropyl-β-cyclodextrin) or 1 mg/kg GSK2126458 (GSK212) by oral gavage daily for 28 days. Tumor sizes were measured and tumor volumes were calculated at the indicated times, and the percent change in tumor volume at the end of therapy was calculated using the formula (final tumor volume−initial tumor volume/initial tumor volume)×100%. The percentages of TUNEL-positive cells were calculated from image quantification at 40× magnification. FIGS. 8C and 8D. HN31 (FIG. 8C) and UM22A (FIG. 8D) were implanted orthotopically (OT) into the anterior tongues of athymic nude mice. […] Tumor sizes were measured, and tumor volumes and percent changes in tumor volumes were calculated as above. […] The percentages of TUNEL-positive cells were calculated as described above. Data are means±standard deviations from 5 mice per group; p values were calculated using an unpaired t-test with the Welch correction. […]

With `COc1ncc(-c2ccc3nccc(-c4ccnnc4)c3c2)cc1NS(=O)(=O)c1ccc(F)cc1F` [GSK2126458] the “apoptosis in PDK1-overexpressing versus parental lines” value (HNSCC cell lines [1]; 24 or 48 hours, NOTCH1MUT cells overexpressing PDK1) was “decreased apoptosis”, the apoptosis (HNSCC cell lines [1]; 24 or 48 hours, NOTCH1MUT lines) was “induced significant apoptosis” and the apoptosis (HNSCC cell lines [1]; two NOTCH1WT/PIK3CAWT and three NOTCH1WT/PIK3CAMUT lines) was “no apoptosis was detected”. For the same compound, the “number of colonies formed and total cell number” value (HNSCC cell lines [2]) was “significantly reduced”, the “target inhibition (PI3K/mTOR pathway proteins)” value [3] was “dose-dependent target inhibition” and the “apoptosis in tumors (TUNEL staining)” value [4] was “significant apoptosis”. For the same compound, the tumor volume [4] was “regressed”.
